Measurements: the supplement of paper PMC8612539
Converted amounts (≈) assume the structure as drawn.

Tested on: Histophilus somni
Test: minimum inhibitory concentration (MIC)
Experimental: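 Broth microdilution MIC (Sensititre BOPO7F bovine plate, CLSI methods) of 19 antimicrobials against field isolates of P. multocida, M. haemolytica, H. somni (deep nasopharyngeal swabs) and E. coli, Enterococcus spp. (rectal swabs) from weaned dairy heifers. Incubation 16-24 h at 35 C. MIC is the lowest concentration preventing visible growth. Values with <= or > lie at the tested range limits. Trimethoprim-sulfamethoxazole is given as the trimethoprim component of a 1:19 mixture.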

CN(C)[C@@H]1C(O)=C(C(N)=O)C(=O)[C@@]2(O)C(O)=C3C(=O)c4c(O)cccc4[C@@](C)(O)[C@H]3C[C@@H]12 [Tetracycline]
Details	minimum inhibitory concentration [µg/mL]
isolate (source animal id): 3	4 (≈ 9 µM)
isolate (source animal id): 4	4 (≈ 9 µM)
isolate (source animal id): 7	8 (≈ 18 µM)
isolate (source animal id): 14	8 (≈ 18 µM)
isolate (source animal id): 15	4 (≈ 9 µM)
isolate (source animal id): 17	8 (≈ 18 µM)
isolate (source animal id): 18	8 (≈ 18 µM)
isolate (source animal id): 20	4 (≈ 9 µM)
isolate (source animal id): 23	≤ 0.5
isolate (source animal id): 45	> 8
isolate (source animal id): 53	> 8
isolate (source animal id): 83	2 (≈ 4.5 µM)
isolate (source animal id): 88	8 (≈ 18 µM)
isolate (source animal id): 92	8 (≈ 18 µM)
isolate (source animal id): 93	8 (≈ 18 µM)
isolate (source animal id): 99	4 (≈ 9 µM)
isolate (source animal id): 100	4 (≈ 9 µM)
isolate (source animal id): 105	2 (≈ 4.5 µM)
isolate (source animal id): 107	4 (≈ 9 µM)
isolate (source animal id): 108	8 (≈ 18 µM)
isolate (source animal id): 109	4 (≈ 9 µM)
isolate (source animal id): 110	4 (≈ 9 µM)
isolate (source animal id): 117	8 (≈ 18 µM)
isolate (source animal id): 121	8 (≈ 18 µM)
isolate (source animal id): 123	4 (≈ 9 µM)
isolate (source animal id): 124	2 (≈ 4.5 µM)
isolate (source animal id): 127	1 (≈ 2.25 µM)
isolate (source animal id): 128	> 8
isolate (source animal id): 130	2 (≈ 4.5 µM)
isolate (source animal id): 132	> 8
isolate (source animal id): 135	> 8
isolate (source animal id): 140	> 8
isolate (source animal id): 141	≤ 0.5
isolate (source animal id): 142	1 (≈ 2.25 µM)
isolate (source animal id): 144	2 (≈ 4.5 µM)
isolate (source animal id): 146	> 8
isolate (source animal id): 147	1 (≈ 2.25 µM)
isolate (source animal id): 151	> 8
isolate (source animal id): 153	4 (≈ 9 µM)
isolate (source animal id): 154	1 (≈ 2.25 µM)
isolate (source animal id): 156	2 (≈ 4.5 µM)
isolate (source animal id): 157	4 (≈ 9 µM)
isolate (source animal id): 176	4 (≈ 9 µM)
isolate (source animal id): 183	4 (≈ 9 µM)
isolate (source animal id): 186	4 (≈ 9 µM)
isolate (source animal id): 196	4 (≈ 9 µM)
isolate (source animal id): 198	2 (≈ 4.5 µM)
isolate (source animal id): 200	4 (≈ 9 µM)
isolate (source animal id): 206	4 (≈ 9 µM)
isolate (source animal id): 208	4 (≈ 9 µM)
isolate (source animal id): 210	1 (≈ 2.25 µM)
isolate (source animal id): 212	1 (≈ 2.25 µM)
isolate (source animal id): 215	4 (≈ 9 µM)
isolate (source animal id): 216	4 (≈ 9 µM)
isolate (source animal id): 218	2 (≈ 4.5 µM)
isolate (source animal id): 219	2 (≈ 4.5 µM)
isolate (source animal id): 224	4 (≈ 9 µM)
isolate (source animal id): 228	8 (≈ 18 µM)
isolate (source animal id): 230	4 (≈ 9 µM)
isolate (source animal id): 233	> 8
isolate (source animal id): 238	≤ 0.5
isolate (source animal id): 239	> 8
isolate (source animal id): 241	4 (≈ 9 µM)
isolate (source animal id): 242	4 (≈ 9 µM)
isolate (source animal id): 243	≤ 0.5
isolate (source animal id): 245	> 8
isolate (source animal id): 246	≤ 0.5
isolate (source animal id): 247	4 (≈ 9 µM)
isolate (source animal id): 248	≤ 0.5
isolate (source animal id): 250	8 (≈ 18 µM)
isolate (source animal id): 251	> 8
isolate (source animal id): 252	4 (≈ 9 µM)
isolate (source animal id): 254	4 (≈ 9 µM)
isolate (source animal id): 258	4 (≈ 9 µM)
isolate (source animal id): 259	4 (≈ 9 µM)
isolate (source animal id): 262	> 8
isolate (source animal id): 264	1 (≈ 2.25 µM)
isolate (source animal id): 265	> 8
isolate (source animal id): 266	2 (≈ 4.5 µM)
isolate (source animal id): 267	2 (≈ 4.5 µM)
isolate (source animal id): 269	1 (≈ 2.25 µM)
isolate (source animal id): 271	2 (≈ 4.5 µM)
isolate (source animal id): 272	> 8
isolate (source animal id): 274	> 8
isolate (source animal id): 276	≤ 0.5
isolate (source animal id): 278	2 (≈ 4.5 µM)
isolate (source animal id): 280	> 8
isolate (source animal id): 281	2 (≈ 4.5 µM)
isolate (source animal id): 283	2 (≈ 4.5 µM)
isolate (source animal id): 288	4 (≈ 9 µM)
isolate (source animal id): 291	8 (≈ 18 µM)
isolate (source animal id): 292	2 (≈ 4.5 µM)
isolate (source animal id): 296	1 (≈ 2.25 µM)
isolate (source animal id): 306	2 (≈ 4.5 µM)
isolate (source animal id): 336	2 (≈ 4.5 µM)
isolate (source animal id): 337	2 (≈ 4.5 µM)
isolate (source animal id): 341	1 (≈ 2.25 µM)

CC[C@H]1OC(=O)C[C@@H](O)[C@H](C)[C@@H](O[C@@H]2O[C@H](C)[C@@H](O)[C@H](N(C)C)[C@H]2O)[C@@H](CCN2CCCCC2)C[C@@H](C)C(=O)/C=C/C(C)=C/[C@@H]1CN1CCCCC1 [Tildipirosin]
Details	minimum inhibitory concentration [µg/mL]
isolate (source animal id): 3	≤ 1
isolate (source animal id): 4	2 (≈ 2.72 µM)
isolate (source animal id): 7	≤ 1
isolate (source animal id): 14	≤ 1
isolate (source animal id): 15	4 (≈ 5.45 µM)
isolate (source animal id): 17	≤ 1
isolate (source animal id): 18	≤ 1
isolate (source animal id): 20	≤ 1
isolate (source animal id): 23	2 (≈ 2.72 µM)
isolate (source animal id): 45	4 (≈ 5.45 µM)
isolate (source animal id): 53	4 (≈ 5.45 µM)
isolate (source animal id): 83	2 (≈ 2.72 µM)
isolate (source animal id): 88	2 (≈ 2.72 µM)
isolate (source animal id): 92	4 (≈ 5.45 µM)
isolate (source animal id): 93	≤ 1
isolate (source animal id): 99	2 (≈ 2.72 µM)
isolate (source animal id): 100	4 (≈ 5.45 µM)
isolate (source animal id): 105	≤ 1
isolate (source animal id): 107	2 (≈ 2.72 µM)
isolate (source animal id): 108	4 (≈ 5.45 µM)
isolate (source animal id): 109	4 (≈ 5.45 µM)
isolate (source animal id): 110	4 (≈ 5.45 µM)
isolate (source animal id): 117	≤ 1
isolate (source animal id): 121	≤ 1
isolate (source animal id): 123	2 (≈ 2.72 µM)
isolate (source animal id): 124	2 (≈ 2.72 µM)
isolate (source animal id): 127	≤ 1
isolate (source animal id): 128	2 (≈ 2.72 µM)
isolate (source animal id): 130	2 (≈ 2.72 µM)
isolate (source animal id): 132	4 (≈ 5.45 µM)
isolate (source animal id): 135	2 (≈ 2.72 µM)
isolate (source animal id): 140	2 (≈ 2.72 µM)
isolate (source animal id): 141	2 (≈ 2.72 µM)
isolate (source animal id): 142	> 16
isolate (source animal id): 144	4 (≈ 5.45 µM)
isolate (source animal id): 146	4 (≈ 5.45 µM)
isolate (source animal id): 147	> 16
isolate (source animal id): 151	2 (≈ 2.72 µM)
isolate (source animal id): 153	8 (≈ 10.9 µM)
isolate (source animal id): 154	> 16
isolate (source animal id): 156	> 16
isolate (source animal id): 157	8 (≈ 10.9 µM)
isolate (source animal id): 176	2 (≈ 2.72 µM)
isolate (source animal id): 183	2 (≈ 2.72 µM)
isolate (source animal id): 186	4 (≈ 5.45 µM)
isolate (source animal id): 196	4 (≈ 5.45 µM)
isolate (source animal id): 198	4 (≈ 5.45 µM)
isolate (source animal id): 200	8 (≈ 10.9 µM)
isolate (source animal id): 206	8 (≈ 10.9 µM)
isolate (source animal id): 208	8 (≈ 10.9 µM)
isolate (source animal id): 210	2 (≈ 2.72 µM)
isolate (source animal id): 212	≤ 1
isolate (source animal id): 215	4 (≈ 5.45 µM)
isolate (source animal id): 216	8 (≈ 10.9 µM)
isolate (source animal id): 218	4 (≈ 5.45 µM)
isolate (source animal id): 219	8 (≈ 10.9 µM)
isolate (source animal id): 224	8 (≈ 10.9 µM)
isolate (source animal id): 228	4 (≈ 5.45 µM)
isolate (source animal id): 230	≤ 1
isolate (source animal id): 233	≤ 1
isolate (source animal id): 238	≤ 1
isolate (source animal id): 239	2 (≈ 2.72 µM)
isolate (source animal id): 241	2 (≈ 2.72 µM)
isolate (source animal id): 242	2 (≈ 2.72 µM)
isolate (source animal id): 243	≤ 1
isolate (source animal id): 245	≤ 1
isolate (source animal id): 246	4 (≈ 5.45 µM)
isolate (source animal id): 247	2 (≈ 2.72 µM)
isolate (source animal id): 248	≤ 1
isolate (source animal id): 250	2 (≈ 2.72 µM)
isolate (source animal id): 251	4 (≈ 5.45 µM)
isolate (source animal id): 252	4 (≈ 5.45 µM)
isolate (source animal id): 254	4 (≈ 5.45 µM)
isolate (source animal id): 258	2 (≈ 2.72 µM)
isolate (source animal id): 259	2 (≈ 2.72 µM)
isolate (source animal id): 262	≤ 1
isolate (source animal id): 264	≤ 1
isolate (source animal id): 265	2 (≈ 2.72 µM)
isolate (source animal id): 266	2 (≈ 2.72 µM)
isolate (source animal id): 267	2 (≈ 2.72 µM)
isolate (source animal id): 269	2 (≈ 2.72 µM)
isolate (source animal id): 271	2 (≈ 2.72 µM)
isolate (source animal id): 272	≤ 1
isolate (source animal id): 274	≤ 1
isolate (source animal id): 276	≤ 1
isolate (source animal id): 278	2 (≈ 2.72 µM)
isolate (source animal id): 280	≤ 1
isolate (source animal id): 281	4 (≈ 5.45 µM)
isolate (source animal id): 283	2 (≈ 2.72 µM)
isolate (source animal id): 288	4 (≈ 5.45 µM)
isolate (source animal id): 291	2 (≈ 2.72 µM)
isolate (source animal id): 292	4 (≈ 5.45 µM)
isolate (source animal id): 296	2 (≈ 2.72 µM)
isolate (source animal id): 306	8 (≈ 10.9 µM)
isolate (source animal id): 336	8 (≈ 10.9 µM)
isolate (source animal id): 337	8 (≈ 10.9 µM)
isolate (source animal id): 341	4 (≈ 5.45 µM)
